{
  "source": "ChEMBL document CHEMBL4804284",
  "set-up_in_all_cases": "scale not given: the % may be the effect or the level left",
  "key": {"[1]": {"target": "Tyrosine-protein kinase JAK1 (Homo sapiens) (UniProt P23458)", "experiment": "Inhibition of DNA-tagged human JAK1 JH1 catalytic domain assessed as percent of control at 50000 nM by qPCR analysis relative to control"}, "[2]": {"target": "Insulin receptor (Homo sapiens) (UniProt P06213)", "experiment": "Inhibition of DNA-tagged human INSR assessed as percent of control at 50000 nM by qPCR analysis relative to control"}, "[3]": {"target": "Insulin-like growth factor 1 receptor (Homo sapiens) (UniProt P08069)", "sequence (P08069 31-736 limits assumed)": "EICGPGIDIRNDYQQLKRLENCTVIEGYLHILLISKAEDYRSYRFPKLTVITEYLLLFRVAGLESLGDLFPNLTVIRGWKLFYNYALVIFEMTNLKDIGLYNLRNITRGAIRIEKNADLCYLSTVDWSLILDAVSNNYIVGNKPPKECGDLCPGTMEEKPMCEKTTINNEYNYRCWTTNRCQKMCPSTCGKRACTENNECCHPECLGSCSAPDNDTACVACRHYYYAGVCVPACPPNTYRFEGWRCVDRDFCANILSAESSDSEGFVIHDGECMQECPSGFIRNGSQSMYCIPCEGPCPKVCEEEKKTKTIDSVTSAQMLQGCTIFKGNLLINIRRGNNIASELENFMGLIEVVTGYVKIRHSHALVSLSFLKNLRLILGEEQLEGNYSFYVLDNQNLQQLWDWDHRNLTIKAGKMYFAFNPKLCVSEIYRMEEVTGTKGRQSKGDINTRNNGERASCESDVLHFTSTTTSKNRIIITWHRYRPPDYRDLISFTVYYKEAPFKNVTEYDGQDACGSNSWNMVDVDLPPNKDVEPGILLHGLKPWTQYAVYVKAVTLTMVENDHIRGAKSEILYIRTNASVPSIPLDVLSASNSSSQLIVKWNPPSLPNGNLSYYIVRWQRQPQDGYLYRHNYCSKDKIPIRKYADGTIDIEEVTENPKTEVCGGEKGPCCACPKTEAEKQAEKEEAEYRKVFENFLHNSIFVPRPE", "sequence (P08069 741-1367 limits assumed)": "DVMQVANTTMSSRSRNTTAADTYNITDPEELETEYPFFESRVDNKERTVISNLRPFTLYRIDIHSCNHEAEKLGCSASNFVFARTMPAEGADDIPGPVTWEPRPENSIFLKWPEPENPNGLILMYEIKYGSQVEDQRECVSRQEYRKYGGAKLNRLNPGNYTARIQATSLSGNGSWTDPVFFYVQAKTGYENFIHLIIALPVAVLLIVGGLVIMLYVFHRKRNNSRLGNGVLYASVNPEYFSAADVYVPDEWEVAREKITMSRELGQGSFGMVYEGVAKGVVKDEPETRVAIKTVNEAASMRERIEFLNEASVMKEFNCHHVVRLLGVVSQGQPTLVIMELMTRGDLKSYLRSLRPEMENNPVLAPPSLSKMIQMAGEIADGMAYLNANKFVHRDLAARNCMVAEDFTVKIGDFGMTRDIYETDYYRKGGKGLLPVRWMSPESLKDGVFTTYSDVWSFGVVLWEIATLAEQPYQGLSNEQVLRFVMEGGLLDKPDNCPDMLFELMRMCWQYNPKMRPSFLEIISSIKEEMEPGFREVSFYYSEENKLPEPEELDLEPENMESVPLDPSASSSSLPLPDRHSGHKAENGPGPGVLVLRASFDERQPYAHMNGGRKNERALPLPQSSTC", "experiment": "Inhibition of DNA-tagged human IGF1R assessed as percent of control at 50000 nM by qPCR analysis relative to control"}, "[4]": {"target": "Hormonally up-regulated neu tumor-associated kinase (Homo sapiens) (UniProt P57058)", "experiment": "Inhibition of DNA-tagged human HUNK assessed as percent of control at 50000 nM by qPCR analysis relative to control"}, "[5]": {"target": "Glycogen synthase kinase-3 beta (Homo sapiens) (UniProt P49841)", "sequence (P49841 whole entry, looked up)": "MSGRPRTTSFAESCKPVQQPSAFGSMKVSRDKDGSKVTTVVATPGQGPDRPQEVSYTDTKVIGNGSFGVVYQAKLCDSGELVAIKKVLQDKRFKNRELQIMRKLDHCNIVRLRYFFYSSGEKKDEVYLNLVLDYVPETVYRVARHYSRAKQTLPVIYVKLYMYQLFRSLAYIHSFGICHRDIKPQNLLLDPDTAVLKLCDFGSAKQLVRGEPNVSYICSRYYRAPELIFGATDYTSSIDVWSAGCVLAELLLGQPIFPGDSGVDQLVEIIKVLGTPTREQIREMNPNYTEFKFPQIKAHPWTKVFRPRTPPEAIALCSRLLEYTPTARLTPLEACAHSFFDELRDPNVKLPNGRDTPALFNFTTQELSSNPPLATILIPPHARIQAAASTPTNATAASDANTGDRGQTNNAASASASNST", "experiment": "Inhibition of DNA-tagged human GSK3B assessed as percent of control at 50000 nM by qPCR analysis relative to control"}, "[6]": {"system": "Fibroblast growth factor receptor 3 (Homo sapiens), P22607 [G697C]", "experiment": "Inhibition of DNA-tagged human FGFR3 G697C mutant assessed as percent of control at 50000 nM by qPCR analysis relative to control"}, "[7]": {"target": "Mitogen-activated protein kinase 15 (Homo sapiens) (UniProt Q8TD08)", "experiment": "Inhibition of DNA-tagged human ERK8 assessed as percent of control at 50000 nM by qPCR analysis relative to control"}, "[8]": {"system": "Epidermal growth factor receptor (Homo sapiens), P00533 [T790M]", "experiment": "Inhibition of DNA-tagged human EGFR T790M mutant assessed as percent of control at 50000 nM by qPCR analysis relative to control"}, "[9]": {"target": "Death-associated protein kinase 3 (Homo sapiens) (UniProt O43293)", "sequence (O43293 whole entry, looked up)": "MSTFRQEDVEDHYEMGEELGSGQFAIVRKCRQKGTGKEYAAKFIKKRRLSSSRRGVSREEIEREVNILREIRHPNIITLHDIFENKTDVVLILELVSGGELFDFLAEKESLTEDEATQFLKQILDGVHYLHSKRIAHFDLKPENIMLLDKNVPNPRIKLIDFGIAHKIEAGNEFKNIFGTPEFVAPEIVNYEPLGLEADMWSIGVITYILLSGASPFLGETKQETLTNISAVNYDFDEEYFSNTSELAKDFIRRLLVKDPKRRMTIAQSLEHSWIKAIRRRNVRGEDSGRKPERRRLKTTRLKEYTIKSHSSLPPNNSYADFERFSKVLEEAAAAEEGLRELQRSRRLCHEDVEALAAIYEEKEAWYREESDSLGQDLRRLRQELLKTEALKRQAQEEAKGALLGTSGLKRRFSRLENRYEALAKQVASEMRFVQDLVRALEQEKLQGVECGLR", "experiment": "Inhibition of DNA-tagged human DAPK3 assessed as percent of control at 50000 nM by qPCR analysis relative to control"}, "[10]": {"target": "Casein kinase I isoform epsilon (Homo sapiens) (UniProt P49674)", "experiment": "Inhibition of DNA-tagged human CSNK1E assessed as percent of control at 50000 nM by qPCR analysis relative to control"}, "[11]": {"target": "Cyclin-dependent kinase 9 (Homo sapiens) (UniProt P50750)", "experiment": "Inhibition of DNA-tagged human CDK9 assessed as percent of control at 50000 nM by qPCR analysis relative to control"}, "[12]": {"target": "Calcium/calmodulin-dependent protein kinase type 1D (Homo sapiens) (UniProt Q8IU85)", "sequence (Q8IU85 whole entry, looked up)": "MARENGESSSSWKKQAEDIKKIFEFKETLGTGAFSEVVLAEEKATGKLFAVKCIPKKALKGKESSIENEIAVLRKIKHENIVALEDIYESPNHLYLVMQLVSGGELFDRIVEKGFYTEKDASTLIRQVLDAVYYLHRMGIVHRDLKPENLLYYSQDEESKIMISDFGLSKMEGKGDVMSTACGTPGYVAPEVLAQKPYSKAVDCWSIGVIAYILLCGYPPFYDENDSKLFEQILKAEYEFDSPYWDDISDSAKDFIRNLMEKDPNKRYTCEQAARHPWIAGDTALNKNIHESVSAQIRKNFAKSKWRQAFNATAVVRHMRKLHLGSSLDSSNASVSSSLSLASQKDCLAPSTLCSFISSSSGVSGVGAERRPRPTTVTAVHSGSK", "experiment": "Inhibition of DNA-tagged human CAMK1D assessed as percent of control at 50000 nM by qPCR analysis relative to control"}, "[13]": {"target": "Aurora kinase C (Homo sapiens) (UniProt Q9UQB9)", "experiment": "Inhibition of DNA-tagged human AURKC assessed as percent of control at 50000 nM by qPCR analysis relative to control"}, "[14]": {"target": "Ankyrin repeat and protein kinase domain-containing protein 1 (Homo sapiens) (UniProt Q8NFD2)", "experiment": "Inhibition of DNA-tagged human ANKK1 assessed as percent of control at 50000 nM by qPCR analysis relative to control"}, "[15]": {"target": "Activin receptor type-2B (Homo sapiens) (UniProt Q13705)", "experiment": "Inhibition of DNA-tagged human ACVR2B assessed as percent of control at 50000 nM by qPCR analysis relative to control"}, "[16]": {"target": "Activin receptor type-2A (Homo sapiens) (UniProt P27037)", "experiment": "Inhibition of DNA-tagged human ACVR2A assessed as percent of control at 50000 nM by qPCR analysis relative to control"}, "[17]": {"system": "Mast/stem cell growth factor receptor Kit (Homo sapiens), P10721 [D816V]", "experiment": "Inhibition of DNA-tagged human KIT D816V mutant assessed as percent of control at 50000 nM by qPCR analysis relative to control"}, "[18]": {"system": "Mast/stem cell growth factor receptor Kit (Homo sapiens), P10721 [V559D,T670I]", "experiment": "Inhibition of DNA-tagged human KIT V559D/T670I double mutant assessed as percent of control at 50000 nM by qPCR analysis relative to control"}, "[19]": {"target": "LIM domain kinase 2 (Homo sapiens) (UniProt P53671)", "experiment": "Inhibition of DNA-tagged human LIMK2 assessed as percent of control at 50000 nM by qPCR analysis relative to control"}, "[20]": {"target": "Serine/threonine-protein kinase MAK (Homo sapiens) (UniProt P20794)", "experiment": "Inhibition of DNA-tagged human MAK assessed as percent of control at 50000 nM by qPCR analysis relative to control"}, "[21]": {"target": "Serine/threonine-protein kinase 4 (Homo sapiens) (UniProt Q13043)", "experiment": "Inhibition of DNA-tagged human MST1 assessed as percent of control at 50000 nM by qPCR analysis relative to control"}, "[22]": {"target": "Myosin light chain kinase 2, skeletal/cardiac muscle (Homo sapiens) (UniProt Q9H1R3)", "experiment": "Inhibition of DNA-tagged human MYLK2 assessed as percent of control at 50000 nM by qPCR analysis relative to control"}, "[23]": {"target": "Serine/threonine-protein kinase 38 (Homo sapiens) (UniProt Q15208)", "sequence (Q15208 2-465 limits assumed)": "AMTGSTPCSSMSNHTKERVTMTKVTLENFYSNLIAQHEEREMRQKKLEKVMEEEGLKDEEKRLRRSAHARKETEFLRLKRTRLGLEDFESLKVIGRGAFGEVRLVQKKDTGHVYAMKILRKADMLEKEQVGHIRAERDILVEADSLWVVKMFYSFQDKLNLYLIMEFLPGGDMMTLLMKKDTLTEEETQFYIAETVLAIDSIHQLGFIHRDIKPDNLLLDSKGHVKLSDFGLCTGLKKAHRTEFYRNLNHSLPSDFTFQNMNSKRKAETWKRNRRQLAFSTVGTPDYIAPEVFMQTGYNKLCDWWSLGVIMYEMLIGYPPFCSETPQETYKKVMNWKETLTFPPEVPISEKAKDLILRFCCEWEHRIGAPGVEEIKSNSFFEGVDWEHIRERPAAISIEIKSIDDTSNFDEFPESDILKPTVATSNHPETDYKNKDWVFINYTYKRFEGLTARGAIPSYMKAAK", "experiment": "Inhibition of DNA-tagged human NDR1 assessed as percent of control at 50000 nM by qPCR analysis relative to control"}, "[24]": {"target": "Serine/threonine-protein kinase Nek11 (Homo sapiens) (UniProt Q8NG66)", "experiment": "Inhibition of DNA-tagged human NEK11 assessed as percent of control at 50000 nM by qPCR analysis relative to control"}, "[25]": {"target": "Cyclin-dependent kinase 14 (Homo sapiens) (UniProt O94921)", "sequence (O94921 whole entry)": "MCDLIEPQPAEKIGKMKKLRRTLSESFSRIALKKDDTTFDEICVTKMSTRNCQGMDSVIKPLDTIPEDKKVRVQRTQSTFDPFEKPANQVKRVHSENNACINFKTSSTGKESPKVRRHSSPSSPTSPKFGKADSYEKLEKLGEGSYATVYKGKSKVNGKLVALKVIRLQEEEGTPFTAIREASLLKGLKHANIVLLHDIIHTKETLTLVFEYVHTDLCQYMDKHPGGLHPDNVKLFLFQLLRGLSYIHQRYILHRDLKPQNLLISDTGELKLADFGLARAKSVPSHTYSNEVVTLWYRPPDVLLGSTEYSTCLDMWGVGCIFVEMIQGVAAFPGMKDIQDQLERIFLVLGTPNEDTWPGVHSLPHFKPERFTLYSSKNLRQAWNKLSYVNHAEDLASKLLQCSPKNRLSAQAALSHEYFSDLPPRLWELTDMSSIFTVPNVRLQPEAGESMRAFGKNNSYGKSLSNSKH", "experiment": "Inhibition of DNA-tagged human PFTK1 assessed as percent of control at 50000 nM by qPCR analysis relative to control"}, "[26]": {"target": "Serine/threonine-protein kinase D1 (Homo sapiens) (UniProt Q15139)", "sequence (Q15139 whole entry)": "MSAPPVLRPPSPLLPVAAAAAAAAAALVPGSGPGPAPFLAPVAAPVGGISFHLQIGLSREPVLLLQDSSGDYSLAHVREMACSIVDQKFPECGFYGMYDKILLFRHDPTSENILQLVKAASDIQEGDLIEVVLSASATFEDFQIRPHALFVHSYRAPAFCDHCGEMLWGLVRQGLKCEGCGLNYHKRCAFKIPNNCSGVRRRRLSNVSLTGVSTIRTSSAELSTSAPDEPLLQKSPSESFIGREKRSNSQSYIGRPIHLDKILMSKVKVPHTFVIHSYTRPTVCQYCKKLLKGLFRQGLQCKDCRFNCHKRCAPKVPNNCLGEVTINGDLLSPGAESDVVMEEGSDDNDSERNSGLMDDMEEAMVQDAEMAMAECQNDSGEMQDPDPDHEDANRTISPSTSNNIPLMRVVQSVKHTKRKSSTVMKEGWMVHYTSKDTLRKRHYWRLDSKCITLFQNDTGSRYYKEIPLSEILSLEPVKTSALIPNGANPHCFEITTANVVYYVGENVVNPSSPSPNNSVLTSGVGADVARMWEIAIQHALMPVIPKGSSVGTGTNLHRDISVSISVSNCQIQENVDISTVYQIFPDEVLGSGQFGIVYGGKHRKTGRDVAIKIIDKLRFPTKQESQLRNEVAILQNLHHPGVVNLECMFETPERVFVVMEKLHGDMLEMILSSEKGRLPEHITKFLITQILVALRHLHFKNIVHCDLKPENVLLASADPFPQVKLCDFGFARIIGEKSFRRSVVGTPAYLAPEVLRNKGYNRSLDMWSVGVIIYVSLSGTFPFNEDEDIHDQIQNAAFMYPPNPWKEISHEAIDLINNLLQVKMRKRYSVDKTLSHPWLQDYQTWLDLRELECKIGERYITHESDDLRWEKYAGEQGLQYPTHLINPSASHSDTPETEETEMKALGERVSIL", "experiment": "Inhibition of DNA-tagged human PRKD1 assessed as percent of control at 50000 nM by qPCR analysis relative to control"}, "[27]": {"target": "Serine/threonine-protein kinase SIK3 (Homo sapiens) (UniProt Q9Y2K2)", "experiment": "Inhibition of DNA-tagged human QSK assessed as percent of control at 50000 nM by qPCR analysis relative to control"}, "[28]": {"target": "Receptor-interacting serine/threonine-protein kinase 2 (Homo sapiens) (UniProt O43353)", "sequence (O43353 whole entry)": "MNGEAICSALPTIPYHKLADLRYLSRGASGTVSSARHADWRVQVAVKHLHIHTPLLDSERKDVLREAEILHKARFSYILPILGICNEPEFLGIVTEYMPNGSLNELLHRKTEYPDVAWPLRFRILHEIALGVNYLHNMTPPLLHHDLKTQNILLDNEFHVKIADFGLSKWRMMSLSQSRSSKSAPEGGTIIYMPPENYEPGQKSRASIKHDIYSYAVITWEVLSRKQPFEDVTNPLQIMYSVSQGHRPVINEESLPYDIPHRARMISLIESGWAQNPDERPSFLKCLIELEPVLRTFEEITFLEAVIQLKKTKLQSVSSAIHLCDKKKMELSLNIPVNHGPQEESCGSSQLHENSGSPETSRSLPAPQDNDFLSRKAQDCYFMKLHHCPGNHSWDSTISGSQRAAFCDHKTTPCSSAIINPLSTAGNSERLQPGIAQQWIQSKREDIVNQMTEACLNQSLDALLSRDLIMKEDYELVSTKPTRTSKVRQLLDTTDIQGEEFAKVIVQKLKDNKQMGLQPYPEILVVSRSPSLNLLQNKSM", "experiment": "Inhibition of DNA-tagged human RIPK2 assessed as percent of control at 50000 nM by qPCR analysis relative to control"}, "[29]": {"target": "Non-receptor tyrosine-protein kinase TNK1 (Homo sapiens) (UniProt Q13470)", "experiment": "Inhibition of DNA-tagged human TNK1 assessed as percent of control at 50000 nM by qPCR analysis relative to control"}, "[30]": {"target": "Serine/threonine-protein kinase TNNI3K (Homo sapiens) (UniProt Q59H18)", "experiment": "Inhibition of DNA-tagged human TNNI3K assessed as percent of control at 50000 nM by qPCR analysis relative to control"}},
  "data": [
    {"smiles": "CN1C(=O)/C(=C2/C(=O)Nc3ccccc32)c2ccccc21", "values": [
      {"measurement": "Activity", "setting": "[1]", "value": 94, "unit": "%"},
      {"measurement": "Activity", "setting": "[2]", "value": 91, "unit": "%"},
      {"measurement": "Activity", "setting": "[3]", "value": 100, "unit": "%"},
      {"measurement": "Activity", "setting": "[4]", "value": 98, "unit": "%"},
      {"measurement": "Activity", "setting": "[5]", "value": 90, "unit": "%"},
      {"measurement": "Activity", "setting": "[6]", "value": 100, "unit": "%"},
      {"measurement": "Activity", "setting": "[7]", "value": 96, "unit": "%"},
      {"measurement": "Activity", "setting": "[8]", "value": 96, "unit": "%"},
      {"measurement": "Activity", "setting": "[9]", "value": 93, "unit": "%"},
      {"measurement": "Activity", "setting": "[10]", "value": 91, "unit": "%"},
      {"measurement": "Activity", "setting": "[11]", "value": 84, "unit": "%"},
      {"measurement": "Activity", "setting": "[12]", "value": 100, "unit": "%"},
      {"measurement": "Activity", "setting": "[13]", "value": 94, "unit": "%"},
      {"measurement": "Activity", "setting": "[14]", "value": 81, "unit": "%"},
      {"measurement": "Activity", "setting": "[15]", "value": 100, "unit": "%"},
      {"measurement": "Activity", "setting": "[16]", "value": 99, "unit": "%"},
      {"measurement": "Activity", "setting": "[17]", "value": 100, "unit": "%"},
      {"measurement": "Activity", "setting": "[18]", "value": 93, "unit": "%"},
      {"measurement": "Activity", "setting": "[19]", "value": 100, "unit": "%"},
      {"measurement": "Activity", "setting": "[20]", "value": 71, "unit": "%"},
      {"measurement": "Activity", "setting": "[21]", "value": 95, "unit": "%"},
      {"measurement": "Activity", "setting": "[22]", "value": 94, "unit": "%"},
      {"measurement": "Activity", "setting": "[23]", "value": 87, "unit": "%"},
      {"measurement": "Activity", "setting": "[24]", "value": 100, "unit": "%"},
      {"measurement": "Activity", "setting": "[25]", "value": 94, "unit": "%"},
      {"measurement": "Activity", "setting": "[26]", "value": 97, "unit": "%"},
      {"measurement": "Activity", "setting": "[27]", "value": 100, "unit": "%"},
      {"measurement": "Activity", "setting": "[28]", "value": 100, "unit": "%"},
      {"measurement": "Activity", "setting": "[29]", "value": 98, "unit": "%"},
      {"measurement": "Activity", "setting": "[30]", "value": 95, "unit": "%"}
    ]}
  ]
}
